Earlier results, collected in patent US20240261224A1, “FORMULATION OF A PAN-JAK INHIBITOR” (KINASET THERAPEUTICS, INC., priority 2022, published 2024).
Where two headings read alike, the source gives them in different places. Marks after values point to notes of the source that are not given here.

What was measured:
[1] = test system: fractional exhaled nitric oxide (FeNO); conditions: cited from earlier work
[2] = marketed DPI; cited from earlier work

| Compound | Mean placebo-corrected FeNO reduction ([1]; 1.0 mg QD, 1 capsule per dose, an increase in FeNO was observed) [%*] | Mean placebo-corrected FeNO reduction ([1]; 4.0 mg QD, 4 capsules per dose) [%] | Mean placebo-corrected FeNO reduction ([1]; 15.0 mg BID, 30 capsules per dose) [%] | Mean placebo-corrected FeNO reduction ([1]; 15.0 mg QD, 15 capsules per dose) [%] | MMAD (μm) [2] |
| --- | --- | --- | --- | --- | --- |
| CN(CCC#N)C1CCN(C(=O)Cn2cc(NC(=O)c3cnn4cccnc34)c(-c3cc(Cl)ccc3OC(F)F)n2)CC1 [GDC-0214] | 0.4 | −6.5 | −42 | −23 |  |
| CCC(=O)O[C@]1(C(=O)SCF)[C@H](C)C[C@H]2[C@@H]3C[C@H](F)C4=CC(=O)C=C[C@]4(C)[C@@]3(F)[C@@H](O)C[C@@]21C [fluticasone propionate] |  |  |  |  | 6-7 μm |
